The values below come from article PMC8746798, “Evaluation of 2-Thioxoimadazolidin-4-one Derivatives as Potent Anti-Cancer Agents through Apoptosis Induction and Antioxidant Activation: In Vitro and In Vivo Approaches” (Molecules, 2021).

The test system of series [1] is Caspase 3 and 9, Bcl-2, PI3K, AKT proteins in HepG2 cells. Kind of series: Western blot of apoptosis-related proteins. In kind it is cell-based, human. As to conditions: treated HepG2 vs untreated control, normalized to β-actin. As for the experimental part: Protein expression analysis for phosphorylated/total phosphatidylinositol 3-kinase (PI3K), protein kinase B (Akt), Caspase 3 and 9 proteins, and Bcl-2 was performed using the Western blotting technique to confirm the mechanism of apoptosis induction by compound 4 in HepG2 cells compared to control. Detailed methodology is supported in Supplementary Materials.

A short description of series [2]: Median lethal dose (LD50). As to conditions: mouse, in vivo, ip; mice, I.p., 24 h mortality. As for the experimental part:
Adopting the procedure described by Finney, different known concentrations of the imidamide 4 were intraperitoneally injected into a group of eight mice (weight on average 21.1 g). […] This assay was carried out evaluate its dose-safety limit and select the dose to be used in the treatment.

The subject of series [3] is HepG2 cells. Kind of series: Colony forming assay. As to conditions: HepG2, 100 μM. In kind it is cell-based, human. As for the experimental part:
HepG2 cells were allowed to attach to form a complete monolayer after seeding 200 cells per well (6-well plate) for 24 h. Five concentrations of compound 4 (0.01, 0.1, 1, 10, 100 µM) were added to the cultured cells, and cells were incubated for 48 h, followed by washing with PBS. After 7 days of incubation, the colonies were fixed and stained with 1% crystal violet in methanol for 3 h. Finally, the crystal violet stain was used for 20 min to stain and count the cells using the light microscope.

In series [4] the test system is HepG2 liver cancer cells. Kind of series: MTT assay for cytotoxic screening, HepG2. In kind it is cell-based, human. As to conditions: Homo sapiens, HepG2, 48 h, mean ± SE, n = 3. Here is the method:
The in vitro anti-cancer activity was assessed using the MTT assay. […] Staurosporine and 5-FU were used as reference drugs. HepG2 cells (1 × 10^4 cells/well, 96-well plate) were maintained in DMEM media supplemented with 2mML-glutamine (Lonza, Verviers, Belgium) and 10% FBS (Sigma, St. Louis, MO, USA), 1% Penicillin/Streptomycin (Lonza, Verviers, Belgium) according to the routine culture work. Cultures were incubated for 48 h with serial dilutions (0.01, 0.1, 1, 10, 100 µM) of the tested compounds. Finally, cell viability was determined by measuring the absorbance λ570 nm according to the following formula: % of cell viability = (A sapmple/A control) ×100, then IC50 calculation was calculated using GraphPad Prism 7 software.
(In general: Tetrazolium assays rely on reduction of a dye to a coloured formazan, in cell work by metabolically active cells.)

The test system of series [5] is THLE-2 normal liver cells. The series can be described thus: MTT assay, normal liver cells. In kind it is cell-based. As to conditions: Homo sapiens, THLE-2, mean ± SE, n = 3.
Series [6] can be described thus: Hematological parameters (CBC) in mice. As to conditions: 6 mg/Kg BW; for Hemoglobin: mean ± SE n = 9. In kind it is in vivo. As for the experimental part:
We randomly divided 50 mice into groups 5 groups (10 mice in each group): normal control (I) (mice injected intraperitoneally with the same volume of solvent for 14 consecutive days); group II, a group of normal mice treated with compound 4 (mice injected intraperitoneally with newly produced compound 4 at a dose of 6 mg/kg per day for 14 days); group III, solid tumor group (mice were implanted with solid tumor); group IV, group were treated with 5-FU (after 10 days of tumor implantation, mice were treated with 6 mg/kg only once); and group V, solid tumor group were treated with compound 4 (after 10 days of tumor implantation, mice were treated with 6 mg/kg only once). after one day of the previous treatment, 10 mice from each group were sacrificed and tumor weight, tumor volume (length and width of solid femoral tumor), blood and liver samples were obtained from each group. A portion of each blood sample taken was used for complete blood count (CBC) and the rest was centrifuged to obtain the serum. Serum was used for biochemical parameter estimation. The livers were rapidly dissected, washed with isotonic saline, and dried. The experiment design is summarized in Supplementary Figure S3.
Complete blood counts (CBCs) were counted using an AbbottCELLDYN®1800 Automated Hematology Analyzer (Abbott Park, IL, USA) equipped with an off-the-shelf kit (Abbott Laboratories, Abbott Park, IL, USA). For microscopic histopathological examination, tumor and kidney slices were maintained in 10% formalin, dehydrated with graduated alcohol, embedded in paraffin sections, H&E stained, and hematoxylin stained.

Series [7] concerns Solid Ehrlich carcinoma (SEC). Kind of series: In vivo anti-tumor assay: tumor volume and tumor inhibition ratio. As to conditions: SEC-bearing mice, 6 mg/kg; SEC control 5802 mm^3. As for the experimental part: We used adult Swiss albino female mice with average body weight 18–23 g obtained from Theodor Bilharzia Research Institute in Giza, Egypt. Mice were kept under constant conditions of a 12 h light–dark cycle at temperatures below controlled moisture conditions (22 ± 2 °C) with standard laboratory mouse nutrition and water entries. Approval for the experimental protocol was provided from the ethical committee of Suez Canal University for this experimental protocol (approval number REC-06-2020, Faculty of Science, Suez Canal University). Mice were adapted for approximately 10 days before use in the experiment.
Solid Ehrlich carcinoma (SEC) was obtained from the National Cancer Institute (University of Cairo, Egypt). The tumor cell line proliferated in mice after serial implantation of the peritoneal cavity (I.P.) in 0.2 mL of physiological saline containing 1 × 10^6 viable cells for 24 h. […]
We measured the length and width of the tumor using a digital Vernier clipper (Tricle Brand, Shanghai, China), then we calculate the tumor volume using the formula: V = (L × W × W)/2, where V is tumor volume, W is tumor width, and L is tumor length, and calculated the tumor inhibition ratio% using the formula: TIR %= (C − T)/C × 100, where T represents mean tumor volume of treated group and C represents mean tumor volume of the control group.

Turning to `O=C1NC(=S)N(c2ccc(O)cc2)/C1=C/c1cccs1` [Compound 4, (E)-1-(4-Hydroxyphenyl)-5-(thiophen-2-ylmethylene)-2-thioxoimidazolidin-4-one], in series [1], the AKT protein level entry is on record as “decreased”, the BCL2 protein level result is listed as “decreased”, the “Caspase 3 protein level” value is “upregulated” and the “Caspase 9 protein level” value is recorded as “upregulated”. For the same compound, the PI3K protein level entry in series [1] is recorded as “decreased”. In series [2], the LD50 (commonly the dose expected to kill half of the subjects tested) at 24 h turned out to be 6 mg/kg. Moreover, the number of colonies in series [3] (464 in control) was determined as 136. Besides, the inhibition – broadly, the drop in the measured response relative to a control, in per cent – at 100 µM in series [3] (Homo sapiens, 48 h treatment, read-out: colony inhibition rate) was ~88%. For the same compound, half-maximal inhibition in series [4] (IC50) was put at 0.017 ± 0.004 µM. The half-maximal inhibitory concentration (IC50) (usually the concentration that inhibits the measured activity by half) in series [5] was 56.6 ± 1.5 µM. For the same compound, in series [6] (SEC-bearing mice, SEC control 7.52 ± 0.5), the “RBC’s count” value is listed as 9.3 ± 0.4 ×10^6/µL. The compound also had a Hemoglobin in series [6] (SEC-bearing mice, SEC control 11.8 ± 0.8) of 13.3 ± 0.7 g/dL. The “WBC’s count” value in series [6] (SEC-bearing mice, SEC control 16.5 ± 3.4) is 9.5 ± 1.9 ×10^3/µL. Also, the “RBC’s count” value in series [6] (normal mice, normal control 8.8 ± 0.3) is given as 8.7 ± 0.4 ×10^6/µL. In series [6] (normal mice, normal control 9.4 ± 1.2), the “WBC’s count” value is given as 9.42 ± 1.3 ×10^3/µL. The Hemoglobin in series [6] (normal mice, normal control 13.3 ± 0.7) worked out at 12.6 ± 0.5 g/dL. Further, in series [7], the “tumor volume on the final day” value came out at 2766 mm^3.
